Our source for the Papp and Ratio values is ChEMBL document CHEMBL1134498, “Experimental and computational screening models for the prediction of intestinal drug absorption” (J Med Chem, 2001).

Where a SMILES comes first, the peptide text is derived from it.

The nature of data set [1]: Apparent permeability coefficient (Papp) (Caco-2 cell monolayer). The class given is ADME, cell-based. Particulars: human.
A short description of data set [2]: Cellular permeability (Pc) (Caco-2 cell monolayer). Type of data set: ADME. To be noted: human, read-out: Pc.
Another data set is filed under the species Homo sapiens. The data set can be described thus: Ratio of [(apical to basal)/(basal to apical)] (Caco-2 cell monolayer). The class given is ADME.

`CCCc1nn(C)c2c(=O)[nH]c(-c3cc(S(=O)(=O)N4CCN(C)CC4)ccc3OCC)nc12`: the Papp in data set [1] came out at 48 ×10⁻⁶ cm/s; in data set [2], 87 ×10⁻⁶ cm/s. Besides, in the data set filed under Homo sapiens, the Ratio is given as 0.83.
As for `C[C@H](NC(=O)[C@@H](N)Cc1ccc(O)cc1)C(=O)N[C@@H](Cc1ccccc1)C(=O)N[C@@H](Cc1ccccc1)C(N)=O` (H-YAFF-NH2), the Papp in data set [1] was found to be 0.04 ×10⁻⁶ cm/s; in data set [2], 0.022 ×10⁻⁶ cm/s.
As for `NC(=O)[C@H](Cc1ccccc1)NC(=O)[C@H](Cc1ccccc1)NC(=O)[C@H](CCCN=C(N)N)NC(=O)[C@@H](N)Cc1ccc(O)cc1` (H-YRFF-NH2), the Papp in data set [1] was 0.037 ×10⁻⁶ cm/s; in data set [2] it was 0.023 ×10⁻⁶ cm/s. Also, the Ratio in the data set filed under Homo sapiens is listed as 0.41.
On to `C=CCc1ccccc1OCC(O)CNC(C)C` (stereo unspecified) [ALPRENOLOL], for which the Papp in data set [1] amounted to 88 ×10⁻⁶ cm/s. In the data set listed under Homo sapiens, the Ratio is ~ 1.
`N=C(N)NC(=O)c1nc(Cl)c(N)nc1N` [AMILORIDE]: the values for the Papp in data set [1] and in data set [2] were 0.56 ×10⁻⁶ cm/s and 0.78 ×10⁻⁶ cm/s, respectively.
As to `Cc1cc(=O)n(-c2ccccc2)n1C` [ANTIPYRINE], the figures for the Papp in data set [1] and in data set [2] were 77 ×10⁻⁶ cm/s and 215 ×10⁻⁶ cm/s, respectively. The Ratio in the data set listed under Homo sapiens is listed as 1.1.
The corresponding values for `CN/C(=N/CCSCc1nc[nH]c1C)NC#N` [CIMETIDINE] are 1.23 ×10⁻⁶ cm/s, 1.2 ×10⁻⁶ cm/s and 1.8.
The corresponding values for `O=C(O)P(=O)(O)O` [FOSCARNET] are 0.045 ×10⁻⁶ cm/s, 0.05 ×10⁻⁶ cm/s and 0.65.
Regarding `OC[C@H]1O[C@@H](O[C@@H]2[C@@H](CO)O[C@](O)(CO)[C@H]2O)[C@H](O)[C@@H](O)[C@H]1O` [LACTULOSE], the Papp in data set [1] amounted to 0.3 ×10⁻⁶ cm/s; in data set [2], 0.27 ×10⁻⁶ cm/s. In addition, the Ratio in the data set listed under Homo sapiens is given as 1.4.
The corresponding values for `OC[C@@H](O)[C@@H](O)[C@H](O)[C@H](O)CO` [MANNITOL] are 0.11 ×10⁻⁶ cm/s, 0.19 ×10⁻⁶ cm/s and 0.89.
On the same counts, the results for `Cc1ccccc1N1C(=O)c2cc(S(N)(=O)=O)c(Cl)cc2NC1C` (stereo unspecified) [METOLAZONE] are 6.2 ×10⁻⁶ cm/s, 6.1 ×10⁻⁶ cm/s and 0.64.
In the case of `COCCc1ccc(OCC(O)CNC(C)C)cc1` (stereo unspecified) [METOPROLOL], the Papp in data set [1] turned out to be 64 ×10⁻⁶ cm/s. Besides, in the data set listed under Homo sapiens, the Ratio is reported as 1.
The corresponding values for `C=CCOc1ccccc1OCC(O)CNC(C)C` (stereo unspecified) [OXPRENOLOL] are 61 ×10⁻⁶ cm/s and ~ 1.
Turning to `CC(C)NCC(O)COc1cccc2[nH]ccc12` (stereo unspecified) [PINDOLOL], the Papp in data set [1] was 36 ×10⁻⁶ cm/s. Also, the Ratio in the data set listed under Homo sapiens is ~ 1.
On the same counts, the results for `CC(=O)Nc1ccc(OCC(O)CNC(C)C)cc1` (stereo unspecified) [PRACTOLOL] are 1.8 ×10⁻⁶ cm/s and ~ 1.
`OC[C@H]1O[C@H](OC[C@H]2O[C@H](O[C@]3(CO)O[C@H](CO)[C@@H](O)[C@@H]3O)[C@H](O)[C@@H](O)[C@@H]2O)[C@H](O)[C@@H](O)[C@H]1O` [RAFFINOSE]: the Papp in data set [1] was 0.051 ×10⁻⁶ cm/s; in data set [2] it was 0.047 ×10⁻⁶ cm/s. The Ratio in the data set filed under Homo sapiens was determined as 1.2.
On the same counts, the results for `O=C(O)c1cc(/N=N/c2ccc(S(=O)(=O)Nc3ccccn3)cc2)ccc1O` [SULFASALAZINE] are 0.16 ×10⁻⁶ cm/s, 0.16 ×10⁻⁶ cm/s and 0.087.
As to `CCN1CCCC1CNC(=O)c1cc(S(N)(=O)=O)ccc1OC` (stereo unspecified) [SULPIRIDE], the figures for the Papp in data set [1] and in data set [2] were 0.23 ×10⁻⁶ cm/s and 0.39 ×10⁻⁶ cm/s, respectively.
